# The supplement of paper PMC10307832
# Columns and labels:
# Assay in all cases: relative viability (nuclei count vs DMSO), 5 days (fraction); higher = more cells survive
# BEN = test system: BEN
# Procedure, shortened: (§1)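 Values are medians from duplicate plates. Each reflects relative viability, defined as the nuclei count of treated wells over that of vehicle wells. Lung cancer cell lines in 1536-well plates were pin-tool dosed one day after seeding with one drug alone or with a fixed anchor-drug dose plus five library-drug doses (not always all listed) in √10 steps, then fixed, stained and imaged at 4× after 5 days.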
# EKVX = test system: EKVX
# Procedure, shortened: as §1
# NCI-H1792 = test system: NCI-H1792
# Procedure, shortened: as §1
# LCLC-97TM1 = test system: LCLC-97TM1
# Procedure, shortened: as §1
# LOU-NH91 = test system: LOU-NH91
# Procedure, shortened: as §1
# NCI-H727 = test system: NCI-H727
# Procedure, shortened: as §1
# HCC-827 = test system: HCC-827
# Procedure, shortened: as §1
# RERF-LC-KJ = test system: RERF-LC-KJ
# Procedure, shortened: as §1
# LK-2 = test system: LK-2
# Procedure, shortened: as §1
# EMC-BAC-2 = test system: EMC-BAC-2
# Procedure, shortened: as §1
# SW 900 = test system: SW 900
# Procedure, shortened: as §1
# NCI-H358 = test system: NCI-H358
# Procedure, shortened: as §1
# NCI-H1944 = test system: NCI-H1944
# Procedure, shortened: as §1
# NCI-H2126 = test system: NCI-H2126
# Procedure, shortened: as §1
# EPLC-272H = test system: EPLC-272H
# Procedure, shortened: as §1
# NCI-H2087 = test system: NCI-H2087
# Procedure, shortened: as §1
# NCI-H1734 = test system: NCI-H1734
# Procedure, shortened: as §1
# NCI-H522 = test system: NCI-H522
# Procedure, shortened: as §1
# HCC-78 = test system: HCC-78
# Procedure, shortened: as §1
# LU99A = test system: LU99A
# Procedure, shortened: as §1
structure (smiles),measurement,setting,value
CCCCCCCCCCCC1=C(O)C(=O)C=C(O)C1=O [Embelin] + NC(=O)Nc1cc(-c2cccc(F)c2)sc1C(=O)N[C@H]1CCCNC1 [AZD7762] (partner 0.2 µM),relative viability,BEN; first compound 0.08 µM,0.63
same,relative viability,BEN; first compound 0.8 µM,0.765
same,relative viability,BEN; first compound 2.53 µM,0.716
same,relative viability,BEN; first compound 8 µM,0.542
same,relative viability,EKVX; first compound 0.08 µM,0.698
same,relative viability,EKVX; first compound 0.8 µM,0.748
same,relative viability,EKVX; first compound 2.53 µM,0.662
same,relative viability,EKVX; first compound 8 µM,0.749
same,relative viability,NCI-H1792; first compound 0.08 µM,0.853
same,relative viability,NCI-H1792; first compound 0.8 µM,0.849
same,relative viability,NCI-H1792; first compound 2.53 µM,0.814
same,relative viability,NCI-H1792; first compound 8 µM,0.547
same,relative viability,LCLC-97TM1; first compound 0.08 µM,0.223
same,relative viability,LCLC-97TM1; first compound 0.8 µM,0.248
same,relative viability,LCLC-97TM1; first compound 2.53 µM,0.205
same,relative viability,LCLC-97TM1; first compound 8 µM,0.268
same,relative viability,LOU-NH91; first compound 0.08 µM,0.795
same,relative viability,LOU-NH91; first compound 0.8 µM,0.932
same,relative viability,LOU-NH91; first compound 2.53 µM,0.779
same,relative viability,LOU-NH91; first compound 8 µM,0.729
same,relative viability,NCI-H727; first compound 0.08 µM,0.533
same,relative viability,NCI-H727; first compound 0.8 µM,0.503
same,relative viability,NCI-H727; first compound 2.53 µM,0.647
same,relative viability,NCI-H727; first compound 8 µM,0.582
same,relative viability,HCC-827; first compound 0.08 µM,0.191
same,relative viability,HCC-827; first compound 0.8 µM,0.21
same,relative viability,HCC-827; first compound 2.53 µM,0.193
same,relative viability,HCC-827; first compound 8 µM,0.278
same,relative viability,RERF-LC-KJ; first compound 0.08 µM,1.02
same,relative viability,RERF-LC-KJ; first compound 0.8 µM,1.15
same,relative viability,RERF-LC-KJ; first compound 2.53 µM,1.13
same,relative viability,RERF-LC-KJ; first compound 8 µM,1
same,relative viability,LK-2; first compound 0.08 µM,0.497
same,relative viability,LK-2; first compound 0.8 µM,0.543
same,relative viability,LK-2; first compound 2.53 µM,0.497
same,relative viability,LK-2; first compound 8 µM,0.351
same,relative viability,EMC-BAC-2; first compound 0.08 µM,1.12
same,relative viability,EMC-BAC-2; first compound 0.8 µM,1.22
same,relative viability,EMC-BAC-2; first compound 2.53 µM,1.13
same,relative viability,EMC-BAC-2; first compound 8 µM,1.06
same,relative viability,SW 900; first compound 0.08 µM,0.556
same,relative viability,SW 900; first compound 0.8 µM,0.624
same,relative viability,SW 900; first compound 2.53 µM,0.502
same,relative viability,SW 900; first compound 8 µM,0.628
same,relative viability,NCI-H358; first compound 0.08 µM,0.604
same,relative viability,NCI-H358; first compound 0.8 µM,0.739
same,relative viability,NCI-H358; first compound 2.53 µM,0.517
same,relative viability,NCI-H358; first compound 8 µM,0.491
same,relative viability,NCI-H1944; first compound 0.08 µM,0.449
same,relative viability,NCI-H1944; first compound 0.8 µM,0.566
same,relative viability,NCI-H1944; first compound 2.53 µM,0.526
same,relative viability,NCI-H1944; first compound 8 µM,0.436
same,relative viability,NCI-H2126; first compound 0.08 µM,0.936
same,relative viability,NCI-H2126; first compound 0.8 µM,1.08
same,relative viability,NCI-H2126; first compound 2.53 µM,1.12
same,relative viability,NCI-H2126; first compound 8 µM,1
same,relative viability,EPLC-272H; first compound 0.08 µM,0.181
same,relative viability,EPLC-272H; first compound 0.8 µM,0.296
same,relative viability,EPLC-272H; first compound 2.53 µM,0.21
same,relative viability,EPLC-272H; first compound 8 µM,0.188
same,relative viability,NCI-H2087; first compound 0.08 µM,1.34
same,relative viability,NCI-H2087; first compound 0.8 µM,1.37
same,relative viability,NCI-H2087; first compound 2.53 µM,1.2
same,relative viability,NCI-H2087; first compound 8 µM,1.28
same,relative viability,NCI-H1734; first compound 0.08 µM,0.587
same,relative viability,NCI-H1734; first compound 0.8 µM,0.692
same,relative viability,NCI-H1734; first compound 2.53 µM,0.593
same,relative viability,NCI-H1734; first compound 8 µM,0.622
same,relative viability,NCI-H522; first compound 0.08 µM,0.865
same,relative viability,NCI-H522; first compound 0.8 µM,1.05
same,relative viability,NCI-H522; first compound 2.53 µM,0.91
same,relative viability,NCI-H522; first compound 8 µM,0.756
same,relative viability,HCC-78; first compound 0.08 µM,0.555
same,relative viability,HCC-78; first compound 0.8 µM,0.773
same,relative viability,HCC-78; first compound 2.53 µM,0.661
same,relative viability,HCC-78; first compound 8 µM,0.647
same,relative viability,LU99A; first compound 0.08 µM,0.335
same,relative viability,LU99A; first compound 0.8 µM,0.4
same,relative viability,LU99A; first compound 2.53 µM,0.372
same,relative viability,LU99A; first compound 8 µM,0.233
